This note sets out measurements from patent US8877741B2, “Pyrrolidine derivatives, pharmaceutical compositions and uses thereof” (Boehringer Ingelheim International GmbH, priority 2013, dated 2014).

Each structure is given as a SMILES string.

The term IC50 denotes the concentration that gives 50% inhibition. High values mean weaker potency in that assay, low ones greater potency in that assay.

human ACC2, sequence (O00763 129-2458): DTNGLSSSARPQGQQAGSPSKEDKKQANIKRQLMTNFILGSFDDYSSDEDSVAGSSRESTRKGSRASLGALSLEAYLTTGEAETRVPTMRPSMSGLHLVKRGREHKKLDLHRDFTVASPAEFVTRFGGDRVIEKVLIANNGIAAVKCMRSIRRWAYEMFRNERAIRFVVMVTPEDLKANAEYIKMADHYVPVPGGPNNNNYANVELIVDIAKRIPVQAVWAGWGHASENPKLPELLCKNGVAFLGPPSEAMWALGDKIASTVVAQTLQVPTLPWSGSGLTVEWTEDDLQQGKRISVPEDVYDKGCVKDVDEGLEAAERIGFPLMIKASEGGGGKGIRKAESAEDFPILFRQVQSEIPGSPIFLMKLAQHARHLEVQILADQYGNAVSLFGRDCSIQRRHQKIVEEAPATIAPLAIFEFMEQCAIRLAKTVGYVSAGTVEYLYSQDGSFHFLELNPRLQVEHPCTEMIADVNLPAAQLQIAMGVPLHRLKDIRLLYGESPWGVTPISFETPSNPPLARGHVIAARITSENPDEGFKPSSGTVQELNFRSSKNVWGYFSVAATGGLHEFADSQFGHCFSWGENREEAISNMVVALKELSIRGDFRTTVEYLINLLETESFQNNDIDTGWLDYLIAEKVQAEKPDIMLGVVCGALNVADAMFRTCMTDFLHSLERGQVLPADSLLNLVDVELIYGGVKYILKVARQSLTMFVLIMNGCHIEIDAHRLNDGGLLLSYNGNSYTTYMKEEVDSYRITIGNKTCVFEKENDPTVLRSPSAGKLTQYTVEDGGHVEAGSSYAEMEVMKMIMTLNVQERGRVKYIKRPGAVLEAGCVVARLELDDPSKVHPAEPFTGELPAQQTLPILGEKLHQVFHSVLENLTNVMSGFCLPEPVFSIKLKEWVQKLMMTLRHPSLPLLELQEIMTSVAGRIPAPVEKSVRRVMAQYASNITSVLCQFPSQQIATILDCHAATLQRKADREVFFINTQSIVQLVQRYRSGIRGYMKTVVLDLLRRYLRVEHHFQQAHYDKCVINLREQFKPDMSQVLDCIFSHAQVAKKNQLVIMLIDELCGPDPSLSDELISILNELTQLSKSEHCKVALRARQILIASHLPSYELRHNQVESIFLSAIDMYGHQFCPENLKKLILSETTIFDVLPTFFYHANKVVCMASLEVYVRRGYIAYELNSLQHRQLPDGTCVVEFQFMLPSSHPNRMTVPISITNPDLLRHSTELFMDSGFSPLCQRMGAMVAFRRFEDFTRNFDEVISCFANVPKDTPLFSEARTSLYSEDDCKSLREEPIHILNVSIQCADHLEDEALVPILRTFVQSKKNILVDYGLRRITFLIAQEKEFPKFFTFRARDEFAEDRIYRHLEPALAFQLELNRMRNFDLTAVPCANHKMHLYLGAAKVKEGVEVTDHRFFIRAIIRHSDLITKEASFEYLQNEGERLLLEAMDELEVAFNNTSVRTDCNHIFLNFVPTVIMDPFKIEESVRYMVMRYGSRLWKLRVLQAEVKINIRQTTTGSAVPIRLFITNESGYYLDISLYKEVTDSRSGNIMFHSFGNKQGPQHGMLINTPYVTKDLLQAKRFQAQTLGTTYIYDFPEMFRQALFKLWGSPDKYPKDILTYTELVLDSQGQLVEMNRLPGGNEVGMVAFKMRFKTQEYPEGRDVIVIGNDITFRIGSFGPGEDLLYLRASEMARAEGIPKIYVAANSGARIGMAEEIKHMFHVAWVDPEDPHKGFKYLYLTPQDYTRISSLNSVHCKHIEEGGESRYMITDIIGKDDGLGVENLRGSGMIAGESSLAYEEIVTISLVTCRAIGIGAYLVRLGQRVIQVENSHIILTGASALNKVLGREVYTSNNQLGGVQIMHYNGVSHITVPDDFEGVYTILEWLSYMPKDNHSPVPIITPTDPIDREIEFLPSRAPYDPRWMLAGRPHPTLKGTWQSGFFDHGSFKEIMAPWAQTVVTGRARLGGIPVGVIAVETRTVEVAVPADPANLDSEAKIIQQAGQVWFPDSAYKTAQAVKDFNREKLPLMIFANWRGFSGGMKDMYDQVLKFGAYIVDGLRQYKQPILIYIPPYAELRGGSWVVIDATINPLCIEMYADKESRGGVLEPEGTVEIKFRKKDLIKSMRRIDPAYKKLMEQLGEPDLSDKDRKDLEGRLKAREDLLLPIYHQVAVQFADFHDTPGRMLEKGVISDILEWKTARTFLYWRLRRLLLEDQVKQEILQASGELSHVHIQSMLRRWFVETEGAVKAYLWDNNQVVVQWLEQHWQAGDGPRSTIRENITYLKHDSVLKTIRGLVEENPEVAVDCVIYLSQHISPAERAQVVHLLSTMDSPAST

For this assay, the target named is human ACC2 (Homo sapiens (Human), UniProt O00763). The assay is described as follows: ACC2 assay, spectrophotometric 384 well assay (NADH-linked kinetic method). Format: biochemical. Conditions: human ACC2 construct lacking the 128 N-terminal amino acids; coupled lactate dehydrogenase/pyruvate kinase reaction, 340 nm, 25° C. Here is the method:
Spectrophotometric 384 Well Assay
Malonyl CoA formation by acetyl CoA carboxylases is stoichometrically linked to the consumption of ATP. ACC2 activity is measured in a NADH-linked kinetic method measuring ADP generated during the ACC reaction using a coupled lactate dehydrogenase/pyruvate kinase reaction.
For biological testing, a human ACC2 construct which lacks the 128 amino acids at the N-terminus for increased solubility (nt 385-6966 in Genbank entry AJ575592) is cloned. The protein is then expressed in insect cells using a baculoviral expression system. Protein purification is performed by anion exchange.
All compounds are dissolved in dimethyl sulfoxide (DMSO) to a concentration of 10 mM.
The enzymatic reaction is then started by addition of a mixture of NADH, acetyl Coenzyme A (both 2000 μM f.c.) and ATP (500 uM f.c.). The decrease of the optical density (slope S) is then determined at 25° C. at a wavelength of 340 nm over 15 minutes in a spectrophotometric reader.
Each assay microtiter plate contains wells with vehicle instead of compound as controls for the non-inhibited enzyme (100% CTL; ‘HIGH’) and wells without acetyl-CoA as controls for non-specific NADH degradation (0% CTL; ‘LOW’).
The slope S is used for calculation of % CTL=(S(compound)−S(‘LOW’))/(S(‘HIGH’)−S(‘LOW’))*100.
For IC50 value determination, the sample slope in the presence of the test compound after subtraction of the low controls (S(compound)−S(‘LOW’)) are used.
An IC50 value is derived from the compound slopes at different dosages after subtraction of the low controls (S(compound)−S(‘LOW’)) by non-linear regression curve fitting (equation y=(A+((B−A)/(1+((C/x)^D))))).
The compound `CO[C@@H]1CN(c2cccc(C(F)(F)F)n2)C[C@@H]1Oc1ccc([C@H](C)NC(C)=O)cc1` [Example 8.9] came in with a concentration for half-maximal inhibition (IC50) of 105 nM.

In turn, `CC(=O)N[C@@H](C)c1ccc(O[C@@H]2CCN(c3ccnc(NCC4CC4)c3F)C2)cc1` [Example 1.114] yielded an IC50 of 43 nM. `CC(=O)N[C@@H](C)c1ccc(O[C@@H]2CCN(c3ccnc(OC4Cc5ccccc5C4)c3)C2)cc1` [Example 9.13] came in with a concentration for half-maximal inhibition (IC50) of 230 nM. As for `CC(=O)N[C@@H](C)c1ccc(O[C@@H]2CCN(c3cccc(N(C)C)n3)C2)cc1` [Example 10.1, N—((S)-1-(4-((R)-1-(6-(Dimethylamino)pyridin-2-yl)pyrrolidin-3-yloxy)phenyl)ethyl)acetamide], the IC50 is 145 nM. The value for `CC(=O)N[C@@H](C)c1ccc(O[C@@H]2CCN(c3cccc(N4CCOC(C)(C)C4)n3)C2)cc1` [Example 10.38] was 369 nM; that for `CC(C#N)C(=O)N[C@@H](C)c1ccc(OC2CCN(c3ccnc(OCC(F)F)c3)C2)cc1` (some centres unmarked) [Example 2.104] was 658 nM.

Take `CCC(=O)N[C@@H](C)c1ccc(OC2CCN(c3ccnc(OCC(F)F)c3)C2)cc1` (some centres unmarked) [Example 2.106]: the IC50 worked out at 88 nM. Compound `C[C@H](NC(=O)N(C)C)c1ccc(OC2CCN(c3ncc(OCC4CC4(F)F)cc3F)C2)cc1` (some centres unmarked) [Example 1.55] returned an IC50 of 154 nM. The value for `CCCNc1nccc(N2CCC(Oc3ccc([C@H](C)NC(=O)OC)cc3)C2)c1F` (some centres unmarked) [Example 4.8] was 77 nM. As for `COCCOc1cc(N2CC[C@@H](Oc3ccc([C@H](C)NC(C)=O)cc3)C2)ccn1` [Example 9.18], the figure is 482 nM; as for `CCC(=O)N[C@@H](C)c1ccc(OC2CCN(c3cccc(C(F)(F)F)n3)C2)cc1` (some centres unmarked) [Example 2.41], 315 nM; as for `C[C@H](NC(=O)CC#N)c1ccc(OC2CCN(c3ccc(OCC4CC4(F)F)cn3)C2)cc1` (some centres unmarked) [Example 2.119], 235 nM. On to `CCN(C)c1nccc(N2CC[C@@H](Oc3ccc([C@H](C)NC(C)=O)cc3)C2)c1F` [Example 10.14], for which half-maximal inhibition (IC50) was put at 45 nM. As for `CCC(=O)Nc1nc(C)c(C(=O)N[C@@H](C)c2ccc(O[C@@H]3CCN(c4ccc(OC[C@H]5CC5(F)F)cn4)C3)cc2)s1` [Example 1.144], the figure is 93 nM; as for `C[C@H](NC(=O)CCO)c1ccc(OC2CCN(c3cccc(C(F)(F)F)n3)C2)cc1` (some centres unmarked) [Example 2.55], 424 nM.

`CCC(COC)Oc1cc(N2CC[C@@H](Oc3ccc([C@H](C)NC(C)=O)cc3)C2)ccn1` (some centres unmarked) [Example 9.46] showed an IC50 of 544 nM. Consider `C[C@H](NC(=O)c1cn[nH]c1)c1ccc(OC2CCN(c3ccc(OC[C@H]4CC4(F)F)cn3)C2)cc1` (some centres unmarked) [Example 2.93], for which it took 40 nM to reach half-maximal inhibition (IC50). As for `CCC(=O)Nc1nc(C)c(C(=O)N[C@@H](C)c2ccc(O[C@@H]3CCN(c4ccnc(NCC(F)F)c4F)C3)cc2)s1` [Example 1.141], the figure is 421 nM.

Take `COC[C@@H]1CCCN1c1cccc(N2CC[C@@H](Oc3ccc([C@H](C)NC(C)=O)cc3)C2)n1` [Example 10.46]: half-maximal inhibition (IC50) required 175 nM. As for `C[C@H](NC(=O)c1cn[nH]c1)c1ccc(OC2CCN(c3ccnc(OCC4CC4)c3)C2)cc1` (some centres unmarked) [Example 2.86], the figure is 63 nM; as for `CC(=O)N[C@@H](C)c1ccc(O[C@@H]2CCN(c3cccc(N(C)CC(C)C)n3)C2)cc1` [Example 10.36], 399 nM; as for `CC(C)Oc1cc(N2CCC(Oc3ccc([C@H](C)NC(=O)c4ccncc4)cc3)C2)ccn1` (some centres unmarked) [Example 2.9], 873 nM. The value for `C[C@H](NC(=O)[C@@H](C)O)c1ccc(OC2CCN(c3ccnc(OCC4CC4)c3)C2)cc1` (some centres unmarked) [Example 2.78] was 799 nM; that for `CCC(CC)Oc1cc(N2CC[C@@H](Oc3ccc([C@H](C)NC(C)=O)cc3)C2)ccn1` [Example 9.20] was 70 nM; that for `CC(=O)N[C@@H](C)c1ccc(O[C@@H]2CCN(c3ccnc(NCC(C)(C)O)c3Cl)C2)cc1` [Example 10.51] was 65 nM.

`CC(=O)N[C@@H](C)c1ccc(O[C@@H]2CCN(c3ccnc(N(C)C4CCCC4)c3)C2)cc1` [Example 10.9] had an IC50 of 849 nM.
